Results as given in patent US7566712B2, “Biaryl piperazinyl-pyridine analogues” (Neurogen Corporation, priority 2003, dated 2009).

Biological target: T1, human capsaicin receptor (Homo sapiens, UniProt Q8NER1)
T1 construct: pBK-CMV expression construct encoding the full length human capsaicin receptor; expressed in transfected cells
Assay: Calcium mobilization assay, determination of antagonist activity (Example 6)
Format: cell-based
Conditions: Table II
Outline: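 HEK293 clonal lines stably expressing full-length human capsaicin receptor, loaded with Fluo-3 AM in KRH buffer pH 7.4, 1–2 h at 37 °C. Compounds (1–5 μM final) preincubated 0.5–6 h at room temperature, then capsaicin at its EC50 added. FLIPR/Fluoroskan calcium signal; IC50 as 50% decrease of capsaicin response.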

[1] = IC50 determined as described in Example 6 (antagonist activity, calcium mobilization)
[2] = IC50 determined as described in Example 6
[3] = determined as described in Example 6 (calcium mobilization, antagonist activity)
[4] = determined as described in Example 6 (antagonist activity), "*" = 1 micromolar or less

T1 sequence (Q8NER1 whole entry): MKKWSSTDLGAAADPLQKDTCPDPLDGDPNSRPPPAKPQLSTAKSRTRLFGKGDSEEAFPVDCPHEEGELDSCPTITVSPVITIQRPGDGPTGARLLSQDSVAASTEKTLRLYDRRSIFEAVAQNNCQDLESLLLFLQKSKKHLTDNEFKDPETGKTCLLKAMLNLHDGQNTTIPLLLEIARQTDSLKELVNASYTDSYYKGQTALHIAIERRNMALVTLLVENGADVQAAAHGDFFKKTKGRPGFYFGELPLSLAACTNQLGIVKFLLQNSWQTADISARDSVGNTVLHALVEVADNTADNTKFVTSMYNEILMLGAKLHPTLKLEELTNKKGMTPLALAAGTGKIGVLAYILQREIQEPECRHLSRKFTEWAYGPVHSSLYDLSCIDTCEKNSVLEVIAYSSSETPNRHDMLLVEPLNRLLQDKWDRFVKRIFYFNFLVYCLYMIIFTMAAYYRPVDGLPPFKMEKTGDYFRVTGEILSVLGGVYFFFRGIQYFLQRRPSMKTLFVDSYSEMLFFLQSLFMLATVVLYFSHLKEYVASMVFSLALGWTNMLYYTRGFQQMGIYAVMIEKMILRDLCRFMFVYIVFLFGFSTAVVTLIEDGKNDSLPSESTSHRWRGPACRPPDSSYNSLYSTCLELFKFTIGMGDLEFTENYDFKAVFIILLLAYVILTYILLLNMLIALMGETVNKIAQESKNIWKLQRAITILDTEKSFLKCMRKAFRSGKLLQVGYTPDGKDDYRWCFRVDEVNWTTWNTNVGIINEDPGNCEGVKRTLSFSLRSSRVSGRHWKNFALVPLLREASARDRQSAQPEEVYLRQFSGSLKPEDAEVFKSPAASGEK

Row | IC50 [3] | IC50 [4] | Structure (SMILES) | further results
1 | – | – | Cc1ccc(-c2cc(N3CCN(c4nccnc4Cl)C[C@H]3C)nc(N3CCC[C@H]3C)n2)cc1F [Example 981, 4-[(2R)-4-(3-chloropyrazin-2-yl)-2-methylpiperazin-1-yl]-6-(3-fluoro-4-methylphenyl)-2-[(2R)-2-methylpyrrolidin-1-yl]pyrimidine] | IC50 [1]: ≤ 1 µM
2 | – | – | Cc1cccnc1N1CCN(c2cc(-c3cccc(OC(C)C)c3)nc(N3CCOCC3)n2)[C@H](C)C1 [Example 543, 4{4-(3-isopropoxyphenyl)-6-[(2R)-2-methyl-4-(3-methylpyridin-2-yl)piperazin-1-yl]pyrimidin-2-yl}morpholine] | IC50 [2]: ≤ 1 µM
3 | ≤ 1 µM | – | C[C@@H]1CN(c2ncccc2Cl)CCN1c1cc(-c2ccc(F)c(F)c2)nc(N2CCCCC2)n1 [Example 769, 4-{(2R)-4-(3-chloropyridin-2-yl)-2-methylpiperazin-1-yl]-6-(3,4-difluorophenyl)-2-piperidin-1-ylpyrimidine] | –
4 | ≤ 1 µM | – | CCN(c1nc(-c2ccc(F)c(Cl)c2)cc(N2CCN(c3ncccc3C(F)(F)F)CC2)n1)C(C)C [Example 601, 4-(3-chloro-4-fluorophenyl)-N-ethyl-N-isopropyl-6-{4-[3-(trifluoromethyl)pyridin-2-yl]piperazin-1-yl}pyrimidin-2-amine] | –
5 | – | ≤ 1 µM | CCCN1C[C@H]2C[C@@H]1CN2c1nc(-c2ccc(F)c(Cl)c2)cc(N2CCN(c3ncccc3C(F)(F)F)CC2)n1 [Example 777, (1R,4R)-2-(4-(3-chloro-4-fluorophenyl)-6-{4-[3-(trifluoromethyl)pyridin-2-yl]piperazin-1-yl}pyrimidin-2-yl)-5-propyl-2,5-diazabicyclo[2.2.1]heptane] | –
6 | ≤ 1 µM | – | Cc1cc(-c2cc(N3CCN(c4ncccc4C(F)(F)F)CC3)nc(N3CCN(C(=O)OC(C)(C)C)CC3)n2)ccc1F [Example 643, tert-butyl 4-(4-(4-fluoro-3-methylphenyl)-6-{4-[3-(trifluoromethyl)pyridin-2-yl]piperazin-1-yl}pyrimidin-2-yl)piperazine-1-carboxylate] | –
7 | ≤ 1 µM | – | Cc1cc(-c2cc(N3CCN(c4ncccc4C(F)(F)F)C[C@H]3C)nc(N3C(C)CCC3C)n2)ccc1F (stereo partly drawn) [Example 755, 2-(2,5-dimethylpyrrolidin-1-yl)-4-(4-fluoro-3-methylphenyl)-6-{(2R)-2-methyl-4-[3-(trifluoromethyl)pyridin-2-yl]piperazin-1-yl}pyrimidine] | –
8 | – | – | Cc1ccc(-c2cc(N3CCN(c4ncccc4Cl)C[C@H]3C)nc(N3CCC[C@@H]3C)n2)cc1F [Example 994, 4-[(2R)-4-(3-chloropyridin-2-yl)-2-methylpiperazin-1-yl]-6-(3-fluoro-4-methylphenyl)-2-[(2S)-2-methylpyrrolidin-1-yl]pyrimidine] | IC50 [1]: ≤ 1 µM
9 | – | – | CCc1cccc(-c2cc(N3CCN(c4ncccc4Cl)C[C@H]3C)nc(N3CCOCC3)n2)c1 [Example 517, 4-[4-[(2R)-4-(3-chloropyridin-2-yl)-2-methylpiperazin-1-yl]-6-(3-ethylphenyl)pyrimidin-2-yl]morpholine] | IC50 [2]: ≤ 1 µM
10 | – | ≤ 1 µM | CC1CCN1c1nc(-c2ccc(F)c(Cl)c2)cc(N2CCN(c3ncccc3Cl)C[C@H]2C)n1 (stereo partly drawn) [Example 780, 4-(3-ohloro-4-fluorophenyi)-6-[(2R)-4-(3-chloropyridin-2-yl)-2-methylpiperazin-1-yl]-2-(2-methylazetidin-1-yl)pyrimidine] | –
11 | ≤ 1 µM | – | Fc1ccc(-c2cc(N3CCN(c4ncccc4C(F)(F)F)CC3)nc(OCc3ccccc3C(F)(F)F)n2)cc1F [Example 582, 4-(3,4-difluorophenyl)-2-{[2-(trifluoromethyl)benzyl]oxy}-6-{4-[3-(trifluoromethyl)pyridin-2-yl]piperazin-1-yl}pyrimidine] | –
12 | – | – | Cc1ccccc1-c1nc(N2CCOCC2)nc(N2CCN(c3ccccn3)CC2)n1 [Example 268, 2-(2-methylphenyl)-4-morpholin-4-yl-6-(4-pyridin-2-ylpiperazin-1-yl)-1,3,5-triazine] | IC50 (determined as described in Example 6, class symbol): ≤ 1 µM
13 | – | ≤ 1 µM | O[C@H]1CCN(c2nc(-c3ccc(F)c(Cl)c3)cc(N3CCN(c4ncccc4C(F)(F)F)CC3)n2)C1 [Example 772, (3S)-1-(4-(3-chloro-4-fluorophenyl)-6-{4-[3-(trifluoromethyl)pyridin-2-yl]piperazin-1-yl}pyrimidin-2-yl)pyrrolidin-3-oI] | –
14 | ≤ 1 µM | – | C[C@@H]1CN(c2ncccc2Cl)CCN1c1cc(-c2ccc(F)c(Cl)c2)nc(N2CCCCC2)n1 [Example 734, 4-(3-chloro-4-fluorophenyl)-6-[(2R)-4-(3-chloropyridin-2-yl)-2-methylpiperazin-1-yl]-2-piperidin-1-ylpyrimidine] | –
15 | – | ≤ 1 µM | CN(C)CCCc1cccc(-c2cc(N3CCN(c4ncccc4C(F)(F)F)CC3)nc(N3CCOCC3)n2)c1 [Example 851, N,N-dimethyl-3-[3-(2-morpholin-4-yl-6-{4-[3-(trifluoromethyl)pyridin-2-yl]piperazin-1-yl}pyrimidin-4-yl)phenyl]propan-1-amine] | –
16 | – | ≤ 1 µM | CC1CCCN1c1nc(-c2ccc(C#N)cc2)cc(N2CCN(c3ncccc3Cl)C[C@H]2C)n1 (stereo partly drawn) [Example 859, 4-[6-[4-(3-chloropyridin-2-yl)-2-methylpiperazin-1-yl]-2-(2-methylpyrrolidin-1-yl)pyrimidin-4-yl]benzonitrile] | –
17 | – | ≤ 1 µM | CC1CCCN1c1nc(-c2ccc(F)c(Cl)c2)cc(N2CCN(c3ncc(C(=O)N(C)C)cc3Cl)CC2)n1 (stereo not drawn) [Example 824, 5-chloro-6-{4-[6-(3-chloro-4-fluorophenyl)-2-(2-methylpyrrolidin-1-yl)pyrimidin-4-yl]piperazin-1-yl}-N,N-dimethylnicotinamide] | –
18 | ≤ 1 µM | – | CC(C)n1ccnc1-c1nc(-c2ccc(F)c(Cl)c2)cc(N2CCN(c3ncccc3C(F)(F)F)CC2)n1 [Example 683, 4-(3-chloro-4-fluorophenyl)-2-(1-isopropyl-1H-imidazol-2-yl)-6-{4-[3-(trifluoromethyl)pyridin-2-yl]piperazin-1-yl}pyrim:dine] | –
19 | – | – | C[C@@H]1CCCN1c1nc(-c2ccc(F)c(Cl)c2)cc(N2CCN(c3nccnc3Cl)C[C@@H]2C)n1 [Example 973, 4-(3-chloro-4-fluorophenyl)-6-[(2S)-4-(3-chloropyrazin-2-yl)-2-methylpiperazin-1-yl]-2-[(2R)-2-methylpyrrolidin-1-yl]pyrimidine] | IC50 [1]: ≤ 1 µM
20 | – | – | COc1cccc(-c2cc(N3CCN(c4ncccc4C(F)(F)F)C[C@H]3C)nc(N3CCOCC3)n2)c1 [Example 525, 4-(4-(3-methoxyphenyl)-6-{(2R)-2-methyl-4-[3-(trifluoromethyl)pyridin-2-yl]piperazin-1-yl}pyrimidin-2-yl)morpholine] | IC50 [2]: ≤ 1 µM
21 | – | ≤ 1 µM | Cc1cc(C#N)cnc1N1CCN(c2cc(-c3ccc(F)cc3)nc(N3CCCC3C)n2)CC1 (stereo not drawn) [Example 931, 6-{4-[6-(4-fluorophenyl)-2-(2-methylpyrrolidin-1-yl)pyrimidin-4-yl]piperazin-1-yl}-5-methylnicotinonitrile] | –
22 | ≤ 1 µM | – | CC1CCC(C)N1c1nc(-c2ccc(F)c(Cl)c2)cc(N2CCN(c3ncccc3C(F)(F)F)CC2)n1 (stereo not drawn) [Example 669, 4-(3-chloro-4-fluorophenyl)-2-(2,5-dimethylpyrrolidin-1-yl)-6-{4-[3-(trifluoromethyl)pyridin-2-yl]piperazin-1-yl}pyrimidine] | –
23 | – | – | C[C@@H]1CN(c2ncccc2C(F)(F)F)CCN1c1cc(-c2ccc3ccccc3c2)nc(N2CCOCC2)n1 [Example 491, 4-[4-{(2R)-2-methyl-4-[3-(trifluoromethyl)pyridin-2-yl]piperazin-1-yl}-6-(2-naphthyl)pyrimidin-2-yl]morpholine] | IC50 [2]: ≤ 1 µM
24 | ≤ 1 µM | – | CC(C)Nc1nc(-c2ccc(F)c(Cl)c2)cc(N2CCN(c3ncccc3C(F)(F)F)CC2)n1 [Example 580, 4-(3-chloro-4-fluorophenyl)-N-isopropyl-6-{4-[3-(trifluoromethyl)pyridin-2-yl]piperazin-1-yl}pyrimidin-2-amine] | –
25 | – | ≤ 1 µM | CCN(CC)C1CN(c2nc(-c3ccc(F)c(Cl)c3)cc(N3CCN(c4ncccc4C(F)(F)F)CC3)n2)C1 [Example 790, 1-(4-(3-chloro-4-fluorophenyl)-6-{4-[3-(trifluoromethyl)pyridin-2-yl]piperazin-1-yl}pyrimidin-2-yl)-N,N-diethylazetidin-3-amine] | –
26 | – | – | Cc1ccc(-c2cc(N3CCN(c4nccnc4Cl)C[C@H]3C)nc(N3CCOCC3)n2)cc1F [Example 993, 4-[4-[(2R)-4-(3-chloropyrazin-2-yl)-2-methylpiperazin-1-yl]-6-(3-fluoro-4-methylphenyl)pyrimidin-2-yl]morpholine] | IC50 [1]: ≤ 1 µM
27 | – | – | C=CCN1CCN(c2nc(-c3ccc(F)c(C)c3)nc(N3CCN(c4ncccc4C(F)(F)F)CC3)n2)CC1 [Example 450, 2-(4-allylpiperazin-1-yl)-4-(4-fluoro-3-methylphenyl)-6-{4-[3-(trifluoromethyl)pyridin-2-yl]piperazin-1-yl}-1,3,5-triazine] | IC50 [2]: ≤ 1 µM
28 | – | ≤ 1 µM | Cc1cc(-c2cc(N3CCN(c4nccnc4Cl)C[C@H]3C)nc(N3CCCC3)n2)ccc1F [Example 914, 4-[(2R)-4-(3-chloropyrazin-2-yl)-2-methylpiperazin-1-yl]-6-(4-fluoro-3-methylphenyl)-2-pyrrolidin-1-ylpyrimidine] | –
29 | – | ≤ 1 µM | O=C(O)C1CCCN(c2nc(-c3ccc(F)c(Cl)c3)cc(N3CCN(c4ncccc4C(F)(F)F)CC3)n2)C1 (stereo not drawn) [Example 800, 1-(4-(3-chloro-4-fluorophenyl)-6-{4-[3-(trifluoromethyl)pyridin-2-yl]piperazin-1-yl}pyrimidin-2-yl)piperidine-3-carboxylic acid] | –
30 | ≤ 1 µM | – | Cc1cc(-c2cc(N3CCN(c4ncccc4Cl)C[C@H]3C)nc(N3CCCCC3C)n2)ccc1F (stereo partly drawn) [Example 745, 4-[(2R)-4-(3-chloropyridin-2-yl)-2-methylpiperazin-1-yl]-6-(4-fluoro-3-methylphenyl)-2-(2-methylpiperidin-1-yl)pyrimidine] | –
